Article PMC8235151, “Glycoside Hydrolases and Non-Enzymatic Glycation Inhibitory Potential of Viburnum opulus L. Fruit—In Vitro Studies” (Antioxidants, 2021)
Converted amounts (≈) assume the structure as drawn. “Also recorded” adds a separate entry of the source.

Columns and labels:
[1] = biological target: rat intestinal α-glucosidase; test: α-glucosidase inhibition assay (glucose release from disaccharide); assay type: biochemical
Description: The assessment of the α-glucosidase activity was slightly modified according to […] et al. and Gao et al.. […] Enzyme isolation was performed in an ultrasonic cleaner (for 30 sec) in an ice bath, then 30 sec without ultrasonic. This step was repeated 12 times. After that, the solution was centrifuged at 4 °C (3000 rpm, 30 min). 50 μL of diluted V. opulus samples were mixed with 50 μL of enzyme supernatant (diluted 2 times for reaction with maltose). After incubation at 37 °C for 10 min, 50 μL of substrate (0.1 M maltose or 0.5 M sucrose solution prepared in 0.1 M phosphate buffer, pH 6.9) was added and incubated in a 96-well microplate at 37 °C for 20 min for maltose and 60 min for sucrose. The reaction was stopped by adding 150 μL of 2 M Tris-HCl buffer (pH 7.0). The concentration of glucose released from the reaction mixture was determined by the commercial glucose test (BIOMAXIMA SA, Lublin, Poland).

[2] = biological target: T1, α-amylase from porcine pancreas (Sus scrofa, UniProt P00690); test: Mode of α-amylase inhibition (Lineweaver-Burk); assay type: biochemical; conditions: for type of inhibition against α-amylase: regardless of the type of starch
T1 construct: α-amylase from porcine pancreas type VI-B; purchased Sigma Aldrich (Steinheim, Germany) type VI-B (catalogue number not given); host or cells: porcine pancreas
T1 sequence (P00690 16-511): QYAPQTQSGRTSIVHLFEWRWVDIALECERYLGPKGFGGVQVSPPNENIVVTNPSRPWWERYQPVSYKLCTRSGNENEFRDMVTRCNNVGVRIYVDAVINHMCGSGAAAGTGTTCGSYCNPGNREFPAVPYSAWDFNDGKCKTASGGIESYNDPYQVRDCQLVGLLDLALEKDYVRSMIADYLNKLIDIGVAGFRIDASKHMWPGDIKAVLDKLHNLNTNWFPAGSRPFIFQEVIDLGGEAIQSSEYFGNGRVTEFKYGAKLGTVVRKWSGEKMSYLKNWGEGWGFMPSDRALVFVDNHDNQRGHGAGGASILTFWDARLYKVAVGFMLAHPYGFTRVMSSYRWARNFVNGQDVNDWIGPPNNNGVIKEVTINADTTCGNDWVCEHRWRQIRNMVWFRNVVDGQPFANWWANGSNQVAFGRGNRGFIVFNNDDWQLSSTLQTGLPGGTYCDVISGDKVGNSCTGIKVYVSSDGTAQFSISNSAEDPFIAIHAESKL
Description: (§1) The α-amylase inhibition assay was based on a previously-described spectrophotometric method with some modifications. All reagents were prepared with 0.1 M phosphate buffer containing 6 mM CaCl2 (pH 6.9). Briefly, 20 µL of diluted V. opulus samples and 40 µL of potato starch (0.83 g/L) or starch from rice (1 g/L) solution were mixed with 20 µL of α-amylase (0.1 mg/mL for potato starch and 0.2 mg/mL for starch from rice) in a 96-well plate. […] The absorbance was read at 600 nm using a microplate reader (Synergy2, Biotek Instruments Inc., Winooski, VT, USA). […] Each sample was measured in triplicate.
The enzymes activities without and with tested samples were studied using the methods described in Section 2.5 and Section 2.6. A double reciprocal graph (1/v versus 1/S, where “v” is the reaction rate and “S” the concentration of the substrate), was plotted. All samples were tested at three different doses using six concentrations of substrate.

[3] = test system: rat intestinal α-glucosidase; test: Mode of α-glucosidase inhibition (Lineweaver-Burk); assay type: biochemical; conditions: for type of inhibition against α-glucosidase: regardless of the type of disaccharide
Description: The assessment of the α-glucosidase activity was slightly modified according to […] et al. and Gao et al.. […] Enzyme isolation was performed in an ultrasonic cleaner (for 30 sec) in an ice bath, then 30 sec without ultrasonic. […] After that, the solution was centrifuged at 4 °C (3000 rpm, 30 min). 50 μL of diluted V. opulus samples were mixed with 50 μL of enzyme supernatant (diluted 2 times for reaction with maltose). After incubation at 37 °C for 10 min, 50 μL of substrate (0.1 M maltose or 0.5 M sucrose solution prepared in 0.1 M phosphate buffer, pH 6.9) was added and incubated in a 96-well microplate at 37 °C for 20 min for maltose and 60 min for sucrose. The reaction was stopped by adding 150 μL of 2 M Tris-HCl buffer (pH 7.0). The concentration of glucose released from the reaction mixture was determined by the commercial glucose test (BIOMAXIMA SA, Lublin, Poland). […] A double reciprocal graph (1/v versus 1/S, where “v” is the reaction rate and “S” the concentration of the substrate), was plotted. All samples were tested at three different doses using six concentrations of substrate.

[4] = test system: AGE formation (BSA-fructose model); test: Protein glycation inhibition assay, BSA-fructose model; assay type: biochemical, bovine; conditions: 37 °C, 6 days
Description: The bovine serum albumin (BSA) and glucose/fructose assay was carried according to the method of Błaszczak et al. with some modifications. We prepared 25 mL of the test solution containing D-glucose or D-fructose (1.0 M), BSA (10 mg/mL) and sodium azide (0.1 mg/mL) in the phosphate buffer (0.1 M, pH 7.4). The test solution (1 mL) was incubated in the dark at 37 °C for 13 days for glucose and for 6 days for fructose with or without 0.5 mL of tested V. opulus samples. […] Next, the formation of AGE was evaluated based on fluorescence intensity at λ = 330 nm (excitation wave) and λ = 460 nm (emission wave). Fluorescence intensity was measured in 96-well plates (black, OptiPlate-96 F, PerkinElmer, UK) in a microplate reader (Synergy2, BioTek Instruments Inc., Winooski, VT, USA).

[5] = test system: AGE formation (BSA-glucose model); test: Protein glycation inhibition assay, BSA-glucose model; assay type: biochemical, bovine; conditions: 37 °C, 13 days
Description: The bovine serum albumin (BSA) and glucose/fructose assay was carried according to the method of Błaszczak et al. [45] with some modifications. We prepared 25 mL of the test solution containing D-glucose or D-fructose (1.0 M), BSA (10 mg/mL) and sodium azide (0.1 mg/mL) in the phosphate buffer (0.1 M, pH 7.4). The test solution (1 mL) was incubated in the dark at 37 °C for 13 days for glucose and for 6 days for fructose with or without 0.5 mL of tested V. opulus samples. […] Next, the formation of AGE was evaluated based on fluorescence intensity at λ = 330 nm (excitation wave) and λ = 460 nm (emission wave). Fluorescence intensity was measured in 96-well plates (black, OptiPlate-96 F, PerkinElmer, UK) in a microplate reader (Synergy2, BioTek Instruments Inc., Winooski, VT, USA).

[6] = biological target: T2, α-amylase from porcine pancreas type VI-B (Sus scrofa, UniProt P00690); test: α-amylase inhibition assay (starch-iodine, spectrophotometric); assay type: biochemical
T2 construct: α-amylase from porcine pancreas type VI-B; purchased Sigma Aldrich (Steinheim, Germany) type VI-B (catalogue number not given); host or cells: porcine pancreas
T2 sequence (P00690 16-511): T1 sequence (P00690 16-511)
Description: as §1

[7] = biological target: sucrase from rat small intestine; design: method as in PMID 16787002; conditions: cited from earlier work
[8] = biological target: maltase from rat small intestine; design: method as in PMID 16787002; conditions: cited from earlier work
[9] = biological target: α-amylase porcine pancreas; design: method as in PMID 16787002; conditions: cited from earlier work
α-amylase = biological target: T3, α-amylase (Sus scrofa, UniProt P00690); design: method as in doi:10.3390/pr8111388; conditions: cited from earlier work
T3 construct: purchased Sigma Aldrich (Steinheim, Germany) type VI-B (catalogue number not given); host or cells: porcine pancreas
T3 sequence (P00690 16-511): T1 sequence (P00690 16-511)

[10] = test system: porcine pancreatic α-amylase; conditions: potato and maize starch; cited from earlier work

Row | Structure (SMILES) | IC50 for the inhibition of α-glucosidase ([1]; substrate maltose) | IC50 for the inhibition of α-glucosidase ([1]; substrate sucrose) | Inhibition Type ([2]; potato starch) | type of inhibition against α-amylase [2] | Inhibition Type ([2]; rice starch) | Inhibition Type ([3]; maltose) | Ki ([3]; maltose) | type of inhibition against α-glucosidase [3] | Inhibition Type ([3]; sucrose) | Ki ([3]; sucrose) | IC50 for the inhibition of AGE formation [4] | also measured
1 | C[C@H]1O[C@H](O[C@H]2[C@H](O)[C@@H](O)[C@@H](O[C@H]3[C@H](O)[C@@H](O)C(O)O[C@@H]3CO)O[C@@H]2CO)[C@H](O)[C@@H](O)[C@@H]1N[C@H]1C=C(CO)[C@@H](O)[C@H](O)[C@H]1O (some centres unmarked) [Acarbose, acarbose] | 0.051 ± 0.001a µg/mL | 1.37 ± 0.04a µg/mL | uncompetitive | uncompetitive; also recorded: uncompetitively | uncompetitive | mixed | / 0.021 μg/mL | mixed type of inhibition (competitive and noncompetitive); also recorded: mixed mode of inhibition | mixed | / 1.52 μg/mL |  | 
2 | Cl.N=C(N)NN [Aminoguanidine, aminoguanidine hydrochloride] |  |  |  |  |  |  |  |  |  |  | 106.08 ± 3.17 µg·days/mL | IC50 for the inhibition of AGE formation [5]: 137.80 ± 3.44a µg/mL
3 | O=C(/C=C/c1ccc(O)c(O)c1)O[C@@H]1C[C@](O)(C(=O)O)C[C@@H](O)[C@H]1O [Chlorogenic acid] | 103.37 ± 5.29bc µg/mL | 99.81 ± 0.75ab µg/mL | competitive | competitive | competitive | noncompetitive | / 145.41 μg/mL | noncompetitive-type inhibition | noncompetitive | / 181.21 μg/mL | 58.87 ± 0.93c µg/mL | IC50 towards α-amylase higher than IC50 for CE, on average ([6]; average of both starches): 2.7 fold; IC50 towards α-amylase higher than IC50 for PE, on average ([6]; average of both starches): 14 fold; IC50 ([6]; substrate potato starch): 2.35 mM; IC50 ([6]; substrate starch from rice): 5.54 mM; lower inhibitory activity against α-glucosidase than PEAF ([1]; maltose): 1.7 fold; Ki ([2]; potato starch): 3.46 mM; Ki ([2]; rice starch): 5.32 mM; IC50 against sucrase [7]: 500 µg/mL (≈ 1.41 mM); IC50 against maltase [8]: 8810 µg/mL (≈ 24.9 mM); IC50 on α-amylase [9]: 13170 µg/mL (≈ 37.2 mM); lower inhibitory activity against α-amylase compared to acarbose (α-amylase): 5 fold; type of inhibitory effect on α-amylase hydrolysis of starch [10]: mixed type inhibitory effect
